Experimental data reported in patent US5369113A, “Certain 2,3-diphenyl-2-(1,2,4-oxadiazol-5-yl)tropanes useful as dopamide reuptake inhibitors” (NeuroSearch A/S, priority 1992, dated 1994).

How the values were obtained:
dopamine release = settings: background statement; cited from earlier work
[1] = at every relevant dosing level tested
Description: The low intensity behavioural effects are here included into the locomotor and rearing syndrome.
The high intensity syndrome of stereotypy is here considered, if the behavioural repertoire of the rat becomes strongly restricted in variation and consists of the continuous repetition of one or a few items of behaviour.
The syndrome of stereotyped sniffing behaviour is thus performed continuously on only a small restricted area of the cage. […] During this stage of high intensity stereotypy all normal behavioural elements are absent including behaviour such as eating, drinking, grooming and normal explorative investigation of the environment. […] The rats are here usually sitting in a typical crouched posture in a corner of the cage. Backward locomotion may occasionally be observed.
The following rating scale is used for the high intensity stereotypy on the condition that the behavioural syndromes are as described above:
+=only stereotyped sniffing
++=stereotyped sniffing and episodic licking
+++=Continuous licking and/or biting gnawing

Structure (SMILES)	dopamine releasing properties (dopamine release)	side effects as measured by abnormal stereotyped behaviour [1]
COC(=O)[C@H]1[C@@H](OC(=O)c2ccccc2)C[C@@H]2CC[C@H]1N2C [cocaine]	strong dopamine releasing properties	
COC(=O)[C@@H]1[C@@H](c2ccc(F)cc2)C[C@@H]2CC[C@H]1N2C [trans isomer of Win 35,428, (1R,2R,3S)-2-carbomethoxy-3-(4-fluorophenyl)tropane]		essentially or totally devoid of side effects
